Among the data in ChEMBL document CHEMBL3507680, “University of Dundee, Gates Library screen for HepG2 cell viability” are cytotoxicity values, retold here.

A short description of this series: Human HepG2 cell viability assay in 384 well format. Details: dose 125 nL, time 70.5 hour; concentration not given beside the values. The note with it: HepG2 cells, read-out: Inhibition. It counts as toxicity, cell-based.

For `CCOCc1cnc2n1CCN(C(=O)c1cccc3c1OCCO3)C2C` (stereo not drawn), the cytotoxicity at 70.5 h is -5.93%.

Turning to `CC(C)N1Cc2c(C(=O)N3CCN(C)CC3)nn(C)c2C1`, the cytotoxicity at 70.5 h is -0.433%.

Turning to `COCC(=O)NCc1cc(=O)n2c(n1)CN(Cc1cccs1)CCC2`, the cytotoxicity at 70.5 h is -6.99%.

In the case of `O=C(COc1ccc(F)cc1)N1CCO[C@H]2[C@@H](OCC3CC3)CC[C@@H]21`, the cytotoxicity at 70.5 h was -6.33%.

`CO[C@@H]1CC[C@H]2[C@H]1OCCN2C(=O)COc1ccc(C)cc1`: the cytotoxicity at 70.5 h was -4.98%.

For the molecule `CCC1=N[C@@]2(CC[C@@H]3CN(CC)C[C@@H]32)C(=O)N1C`, the cytotoxicity at 70.5 h amounted to 7.11%.

In the case of `O=C(c1ncccn1)N1C[C@@H]2COC[C@]2(COc2cccnc2)C1`, the cytotoxicity at 70.5 h is -4.57%.

`CO[C@H]1CC[C@H]2[C@H]1OCCN2C(=O)CCOc1ccccc1`: the cytotoxicity at 70.5 h is -2.84%.

On to `CCN1CC[C@@H]2OC[C@H](C(=O)NCc3cccs3)C[C@@H]2C1`, for which the cytotoxicity at 70.5 h is 45.7%.

As to `CN(C)C(=O)CN1CCC2(COCc3cnc(-c4ccccc4)nc32)C1` (stereo not drawn), the cytotoxicity at 70.5 h is -6.03%.

With `Cn1ccc(-c2cc(C(=O)N3CCCCC3)c3ccccn23)n1`, the cytotoxicity at 70.5 h came to 4.75%.

Turning to `O=C(N[C@@H]1CN(Cc2ccco2)[C@@H]2CCCO[C@@H]21)c1cscn1`, the cytotoxicity at 70.5 h was -5.42%.

Regarding `O=C(C1CCC1)N1CC[C@@H]2CN(Cc3cccnc3)S(=O)(=O)[C@@H]2CC1`, the cytotoxicity at 70.5 h is -4.67%.

Take `COCC(=O)N1CC[C@@H]2CN(Cc3cccnc3)S(=O)(=O)[C@@H]2CC1`: the cytotoxicity at 70.5 h is -2.46%.

Take `CS(=O)(=O)NC[C@]12COC[C@H]1CN(C(=O)N1CCCC1)C2`: the cytotoxicity at 70.5 h is -4.24%.

As to `O=C(c1ccccc1)N1CC[C@H]2C[C@@H](c3nnc(C4CC4)o3)O[C@@H]2C1`, the cytotoxicity at 70.5 h is -4.88%.

On to `CS(=O)(=O)NC[C@]12COC[C@H]1CN(C(=O)CC1CCCC1)C2`, for which the cytotoxicity at 70.5 h is -13.4%.

As to `Cc1ccoc1C(=O)N1CC[C@H]2C[C@H](c3nnc(C4CC4)o3)O[C@@H]2C1`, the cytotoxicity at 70.5 h is -11.4%.

For `Cc1cccc(CO[C@@H]2CC[C@H]3[C@H]2OCCN3Cc2ccoc2)n1`, the cytotoxicity at 70.5 h is -11.3%.

For the molecule `O=C(c1ccoc1)N1CC[C@H]2C[C@@H](c3nnc(C4CC4)o3)O[C@@H]2C1`, the cytotoxicity at 70.5 h is -12%.

On to `O=C(c1ccccc1)N1CC[C@H]2C[C@H](c3nnc(C4CC4)o3)O[C@@H]2C1`, for which the cytotoxicity at 70.5 h was -9.97%.

For `CN(CCO)C[C@@H]1CN(C(=O)Cc2ccc3ccccc3c2)C[C@@H]1CO`, the cytotoxicity at 70.5 h was -4.17%.

In the case of `COCc1nc(CNC2CCCC(C)(C)C2)no1` (stereo not drawn), the cytotoxicity at 70.5 h is -9.03%.

Turning to `CC1(C)C(C(=O)NCCC2CN(Cc3c[nH]cn3)CCO2)C1(C)C` (stereo not drawn), the cytotoxicity at 70.5 h is -13.9%.

In the case of `Cc1ccc(Sc2ccc(CN3CCC4(CCCNC4=O)C3)o2)cc1` (stereo not drawn), the cytotoxicity at 70.5 h came out at 5.69%.

`Cc1nnc(SCCCNC(=O)Nc2ccc3c(c2)OCO3)s1`: the cytotoxicity at 70.5 h amounted to 11.4%.

In the case of `CCC(=O)N1CCCC(c2nc(-c3cccnn3)no2)C1` (stereo not drawn), the cytotoxicity at 70.5 h is -0.455%.

`Cc1cc(CN2C[C@H]3CC[C@@H]2CN(Cc2c(C)noc2C)C3)ccc1F`: the cytotoxicity at 70.5 h was -5.96%.

Take `Cc1cnc(CNC(=O)CC2CCc3ccccc32)cn1` (stereo not drawn): the cytotoxicity at 70.5 h is -13.9%.

With `CSCCC(O)C(=O)N1CCC(OCc2cccnc2)CC1` (stereo not drawn), the cytotoxicity at 70.5 h turned out to be 16.3%.

On to `Cc1nn(CC(=O)O)c(C)c1NS(=O)(=O)c1cc2ccccc2s1`, for which the cytotoxicity at 70.5 h came out at 24.3%.

On to `FC(F)(F)CCc1ccnc(N[C@H]2CC[C@H](n3cnnc3)CC2)n1`, for which the cytotoxicity at 70.5 h is -9.96%.

In the case of `O=C(NCCN1CCCC(CO)C1)c1ccc2sccc2c1` (stereo not drawn), the cytotoxicity at 70.5 h was -6.22%.

`CN(C)C(C(=O)NCC(F)(F)F)c1cccc(F)c1` (stereo not drawn): the cytotoxicity at 70.5 h was -2.03%.

Take `Cc1nn(C)cc1C(C)Nc1ncnc2sccc12` (stereo not drawn): the cytotoxicity at 70.5 h was determined as 19.1%.

On to `CNc1nc(N2CCN(CC=C(C)C)C(CCO)C2)nc2c1CCC2` (stereo not drawn), for which the cytotoxicity at 70.5 h was found to be 6.77%.

For the molecule `c1ccc(OCc2noc(CN3CCC(N4CCSCC4)CC3)n2)cc1`, the cytotoxicity at 70.5 h is -5.9%.

Consider `NC1CCCCN(Cc2cc(-c3ccccc3OC(F)(F)F)no2)C1` (stereo not drawn), for which the cytotoxicity at 70.5 h is -8.03%.

Consider `Cc1nn(C)c2ncnc(NCC(O)CN3CCCCC3)c12` (stereo not drawn), for which the cytotoxicity at 70.5 h worked out at 21.5%.

For the molecule `CCN(C)C[C@@H]1CN(Cc2cnc3c(S(C)(=O)=O)cnn3c2)C[C@@H]1CO`, the cytotoxicity at 70.5 h came to 1.07%.

With `CCC(C(=O)N(Cc1ccccn1)C1CCCCC1)n1cccn1` (stereo not drawn), the cytotoxicity at 70.5 h was 22.3%.

Consider `COc1ccccc1N1CCC(N2CCOCC(CO)C2)CC1` (stereo not drawn), for which the cytotoxicity at 70.5 h was -6.73%.

Take `CN(CCCc1cnn(C)c1)C(=O)Nc1cccc2[nH]nnc12`: the cytotoxicity at 70.5 h is -7.81%.

In the case of `CCn1ncc2[nH]c(-c3cc4c(cc3OC)OCO4)nc21`, the cytotoxicity at 70.5 h was -4.87%.

For the molecule `CCOc1ccc(-c2ccnc(COc3ccccc3)n2)cc1C(=O)O`, the cytotoxicity at 70.5 h was -0.267%.

`CC(Cn1cncn1)NCc1csc2c1CCCC2` (stereo not drawn): the cytotoxicity at 70.5 h was -0.547%.

Consider `COc1ccc(/C=C/CN2CCCC3(C2)CN(C)C(=O)O3)cc1` (stereo not drawn), for which the cytotoxicity at 70.5 h stood at 11.6%.

With `Cc1ccccc1C(C(=O)N(Cc1cnn(C)c1)CC(C)C)N(C)C` (stereo not drawn), the cytotoxicity at 70.5 h was -9.52%.

Turning to `Cc1ccc2c(c1)CN(CC(=O)NCCc1ccc(F)cc1)CC(C)O2` (stereo not drawn), the cytotoxicity at 70.5 h was -7.54%.

As for `CCC[C@@H]1CN(c2cncc(C(=O)N3CCOCC3)n2)C[C@H]1N(C)C`, the cytotoxicity at 70.5 h was determined as 32.6%.

For `Fc1cccc(-n2cc(CN3CCCCC3CCn3ccnc3)cn2)c1` (stereo not drawn), the cytotoxicity at 70.5 h stood at 4.66%.

Turning to `Cn1nccc1C(=O)N1CCOC(Cc2ccc(F)cc2)C1` (stereo not drawn), the cytotoxicity at 70.5 h was -3.53%.

As to `CNc1ncc(C(=O)N2CCC3(CC2)Nc2ccccc2NC3=O)cn1`, the cytotoxicity at 70.5 h is -0.695%.

As to `O=C1NCC2(CCCN(C(=O)Nc3ccc4occc4c3)CC2)O1` (stereo not drawn), the cytotoxicity at 70.5 h is -1.24%.

Turning to `Cc1nc2[nH]cc(C(=O)N3CCCCC3c3ccc(F)cc3)c(=O)n2n1` (stereo not drawn), the cytotoxicity at 70.5 h turned out to be 3.11%.

Consider `COc1ccccc1N1CCN(Cc2nccc(OC)c2OC)CC1=O`, for which the cytotoxicity at 70.5 h is 7.74%.

`OC1(CN2CCc3nnc(Cc4cccnc4)n3CC2)CCCNC1` (stereo not drawn): the cytotoxicity at 70.5 h is -4.53%.

`CN(CCO)Cc1nnc(C2CCN(C(=O)c3cccn3C)CC2)n1C`: the cytotoxicity at 70.5 h is -5.93%.

As to `CCSc1ccc(C(=O)N2CCC3(CC2)[C@H](O)C[C@@H]3O)s1`, the cytotoxicity at 70.5 h was -12.1%.

Consider `COc1cccc2c1OCC(Cc1cc(C(=O)N3CCCC3)ccn1)C2` (stereo not drawn), for which the cytotoxicity at 70.5 h is -16.5%.

As for `O=C(Nc1nncs1)N1CCCN(C2CCCC2)CC1`, the cytotoxicity at 70.5 h is 18.5%.

As to `CC(C)c1cc(N2CC[C@H](F)C2)n2nccc2n1`, the cytotoxicity at 70.5 h came out at 2.77%.

Regarding `Nc1nccc(-c2cccc3ccnn23)n1`, the cytotoxicity at 70.5 h is -1.89%.

Consider `COc1ccccc1CCc1nc(CC2CCN(C)CC2)no1`, for which the cytotoxicity at 70.5 h is -2.87%.

For the molecule `CCn1cncc1C1CC(=O)Nc2c1c(C)nn2C` (stereo not drawn), the cytotoxicity at 70.5 h was -4.74%.

`CCOC(=O)c1n[nH]cc1CN1CCOC(Cc2ccc(OC)cc2)C1` (stereo not drawn): the cytotoxicity at 70.5 h was -3.26%.

Turning to `OCCCN1CCc2[nH]nc(C(c3ccccc3)c3ccccc3)c2C1`, the cytotoxicity at 70.5 h was -3.77%.

Take `CC(C)c1cc(C(=O)N2CCN(C)[C@@H]3CS(=O)(=O)C[C@@H]32)no1`: the cytotoxicity at 70.5 h is -7.29%.

As to `C[C@@H]1CN(C(=O)CCc2cnn(C)c2)CC[C@@]1(O)C1CCOCC1`, the cytotoxicity at 70.5 h came out at 8.15%.

As to `Cc1ccccc1C(CC(=O)NCc1nnc(N)s1)c1ccccc1` (stereo not drawn), the cytotoxicity at 70.5 h was -3.82%.

On to `COc1cccc(N2CCN(Cc3ccc4occc4c3)CC2=O)c1`, for which the cytotoxicity at 70.5 h is -12.9%.

As to `CC(C)(C(=O)NCC1CCN(Cc2ncc[nH]2)C1)c1ccccc1` (stereo not drawn), the cytotoxicity at 70.5 h was -5.7%.

For the molecule `COc1ccc2c(CN3CCN(Cc4cccc(F)c4)CC3)n[nH]c2c1`, the cytotoxicity at 70.5 h was -3.1%.

As to `Cc1ccc(N2CCN(C(=O)CCc3ccc(O)cc3)CC2=O)cc1`, the cytotoxicity at 70.5 h was -10.1%.

On to `c1ccc(COC[C@H]2CCC[C@@]23CNCCO3)nc1`, for which the cytotoxicity at 70.5 h was found to be 15.4%.

Turning to `c1ccc(COC[C@@H]2CCC[C@@]23CNCCO3)nc1`, the cytotoxicity at 70.5 h was determined as 14.4%.

Regarding `NC(=O)N1CCC2(CCN(C(=O)c3cccnc3)CC2)C1`, the cytotoxicity at 70.5 h came to 0.925%.

`Cc1ccc(CN2CCC3(CC2)CCN(C(=O)c2cccnc2)C3)o1`: the cytotoxicity at 70.5 h was -5.87%.

Regarding `COCCN1CCCn2c(nc(CNC(=O)COC)cc2=O)C1`, the cytotoxicity at 70.5 h is -2.45%.

Regarding `CCC(C)N1Cc2c(C(=O)N3CCOCC3)nn(C)c2C1` (stereo not drawn), the cytotoxicity at 70.5 h was -6.15%.

Turning to `COCC(=O)NCc1cc(=O)n2c(n1)CN(Cc1ccccc1)CCC2`, the cytotoxicity at 70.5 h was found to be 2.31%.

Regarding `O=C(C1CCC1)N1CC[C@H](O)[C@@H]1Cc1cccnc1`, the cytotoxicity at 70.5 h turned out to be 1.53%.

With `O=C(C1=CCCC1)N1C[C@@H]2COC[C@]2(COc2ncccc2F)C1`, the cytotoxicity at 70.5 h came to 6.81%.

For the molecule `CCO[C@@H]1CC[C@H]2[C@H]1OCCN2Cc1ccoc1`, the cytotoxicity at 70.5 h was -1.39%.

For the molecule `CN1CCO[C@@H]2CN(C(=O)Cc3cccs3)CC[C@@H]2C1`, the cytotoxicity at 70.5 h was -2.05%.

Consider `CN(C)C1CCN(C(=O)c2cc(-c3ccn(C)n3)n3ccccc23)CC1`, for which the cytotoxicity at 70.5 h was -6.13%.

On to `CC(C)CN1CCC2(COCc3cnc(-c4ccccc4)nc32)C1` (stereo not drawn), for which the cytotoxicity at 70.5 h was -3.09%.

Take `c1ccc(CO[C@@H]2CN(Cc3nccs3)[C@@H]3COC[C@@H]32)nc1`: the cytotoxicity at 70.5 h was -7.21%.

With `c1cncc(CO[C@H]2CN(Cc3ccco3)[C@@H]3COC[C@H]23)c1`, the cytotoxicity at 70.5 h is -3.78%.

For `CN(Cc1cccnc1)[C@@H]1CN(C(=O)c2ccno2)[C@@H]2CCCO[C@H]12`, the cytotoxicity at 70.5 h is -5.28%.

Turning to `COCCN1CCc2c(c(COc3cccnc3)nn2C)C1`, the cytotoxicity at 70.5 h was -8.79%.

On to `CN1CCN(Cc2cn3c(n2)CN(Cc2cccc(F)c2)CC3)CC1`, for which the cytotoxicity at 70.5 h is -11.9%.

With `FC1(F)CCN(Cc2ccccn2)CC12CCN(c1cnccn1)C2` (stereo not drawn), the cytotoxicity at 70.5 h was -5.08%.
